Experimental data reported in US20240261274A1, “TREATMENT OF MYC-DRIVEN CANCERS WITH GSPT1 DEGRADERS” (MONTE ROSA THERAPEUTICS, INC., priority 2021, published 2024).

Key:
Assay type in all cases: cell-based
ZFP91 = molecular target: T1, ZFP91 (Homo sapiens, UniProt Q96JP5+Q96SW2); assay: Selectivity western blot assay in MM1 S cells, ZFP91; parameters: key: A represents no degradation observed at 30 μM; B represents trace degradation at 30 μM (below 20%); C represents weak degradation at 30 μM (below 50%); D represents degradation at 30 μM (>90%); E represents degradation at 3 μM (>90%); F represents degradation at 0.3 μM (>90%); settings: MM1 S cells, 0.3, 3 and 30 μM, 6 hours
T1 construct: endogenous in cells; host or cells: MM1 S (ATCC CRL-2974)
T1 sequence (Q96JP5 whole entry): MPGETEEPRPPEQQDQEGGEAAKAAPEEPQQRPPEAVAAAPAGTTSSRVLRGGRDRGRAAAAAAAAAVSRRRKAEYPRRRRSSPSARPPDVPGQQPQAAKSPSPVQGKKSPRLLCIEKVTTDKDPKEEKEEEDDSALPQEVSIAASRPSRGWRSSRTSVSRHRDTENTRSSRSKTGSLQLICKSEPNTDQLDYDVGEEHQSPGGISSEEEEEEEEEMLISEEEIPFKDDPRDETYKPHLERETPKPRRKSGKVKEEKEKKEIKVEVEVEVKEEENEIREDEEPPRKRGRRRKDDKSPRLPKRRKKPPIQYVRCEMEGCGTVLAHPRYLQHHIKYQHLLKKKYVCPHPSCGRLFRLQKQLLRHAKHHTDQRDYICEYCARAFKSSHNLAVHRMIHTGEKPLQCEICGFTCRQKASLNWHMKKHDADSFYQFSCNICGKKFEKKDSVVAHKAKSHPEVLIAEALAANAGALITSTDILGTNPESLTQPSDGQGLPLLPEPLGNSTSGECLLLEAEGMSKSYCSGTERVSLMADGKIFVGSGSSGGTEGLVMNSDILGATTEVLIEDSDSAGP
T1 sequence (Q96SW2 whole entry): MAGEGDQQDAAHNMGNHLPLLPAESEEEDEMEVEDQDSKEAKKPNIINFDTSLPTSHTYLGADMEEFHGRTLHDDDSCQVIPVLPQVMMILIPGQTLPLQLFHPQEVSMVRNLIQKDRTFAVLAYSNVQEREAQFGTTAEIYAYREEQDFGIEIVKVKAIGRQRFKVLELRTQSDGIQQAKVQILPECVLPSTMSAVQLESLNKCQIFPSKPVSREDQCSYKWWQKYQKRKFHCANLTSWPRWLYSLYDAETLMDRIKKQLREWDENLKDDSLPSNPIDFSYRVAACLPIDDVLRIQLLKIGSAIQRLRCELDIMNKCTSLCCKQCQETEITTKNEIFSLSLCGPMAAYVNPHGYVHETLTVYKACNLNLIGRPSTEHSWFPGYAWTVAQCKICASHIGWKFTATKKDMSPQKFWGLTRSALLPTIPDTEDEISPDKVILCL
T1 sequence (Q16531 whole entry partner): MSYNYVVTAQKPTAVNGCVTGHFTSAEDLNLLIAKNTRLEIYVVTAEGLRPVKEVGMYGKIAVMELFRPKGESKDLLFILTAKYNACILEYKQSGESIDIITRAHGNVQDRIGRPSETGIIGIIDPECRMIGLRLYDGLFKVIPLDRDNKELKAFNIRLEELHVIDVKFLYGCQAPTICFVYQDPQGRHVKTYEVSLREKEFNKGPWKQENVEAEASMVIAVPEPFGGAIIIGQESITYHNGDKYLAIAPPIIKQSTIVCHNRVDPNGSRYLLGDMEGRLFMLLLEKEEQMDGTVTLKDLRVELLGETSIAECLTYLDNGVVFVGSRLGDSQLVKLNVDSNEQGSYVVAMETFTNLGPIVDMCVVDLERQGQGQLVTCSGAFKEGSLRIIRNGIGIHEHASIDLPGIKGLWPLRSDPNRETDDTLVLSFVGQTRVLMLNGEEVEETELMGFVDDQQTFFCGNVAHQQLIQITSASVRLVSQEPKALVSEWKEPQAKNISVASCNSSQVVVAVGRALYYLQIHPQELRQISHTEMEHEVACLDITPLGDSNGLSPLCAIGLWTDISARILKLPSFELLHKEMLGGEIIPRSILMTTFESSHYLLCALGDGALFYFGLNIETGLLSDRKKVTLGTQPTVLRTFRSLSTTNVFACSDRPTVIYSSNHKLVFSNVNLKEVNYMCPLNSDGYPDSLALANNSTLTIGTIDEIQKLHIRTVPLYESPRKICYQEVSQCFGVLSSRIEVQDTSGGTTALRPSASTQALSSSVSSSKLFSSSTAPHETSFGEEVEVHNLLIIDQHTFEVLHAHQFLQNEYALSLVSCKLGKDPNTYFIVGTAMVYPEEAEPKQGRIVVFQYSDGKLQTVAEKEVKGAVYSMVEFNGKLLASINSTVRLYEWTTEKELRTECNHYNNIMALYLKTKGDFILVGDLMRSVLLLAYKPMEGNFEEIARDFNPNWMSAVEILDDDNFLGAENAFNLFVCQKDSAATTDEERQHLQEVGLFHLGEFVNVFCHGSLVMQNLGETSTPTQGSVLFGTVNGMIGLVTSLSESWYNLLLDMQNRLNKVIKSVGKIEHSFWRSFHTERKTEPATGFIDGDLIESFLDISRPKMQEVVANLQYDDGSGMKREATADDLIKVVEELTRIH
Protocol: (§1) MM1 S cells were purchased from ATCC (cat. Number CRL-2974), sub-cultured in 90% RPMI 1640 with 10% FBS, supplemented with 1×P/S and incubated at 37° C., 5% CO2. Compounds were stored as 10 mM DMSO stock. For the assay, MM1 S cells (3 million cells/well) were plated in 6-well plates and incubated over night. Cells were treated with respective compounds using a serial dilution: 0.3 μM, 3 μM and 30 μM as well as a vehicle only (DMSO) control for 6 hours. Media with suspension cells was subsequently transferred to 15 mL conical tubes, wells rinsed twice with ice-cold PBS and merged with cell suspension in respective 15 mL conical tube. Cells were spinned down, supernatant aspirated, pellets resuspended in ice-cold PBS and transferred to microtubes. Cells were spinned down, supernatant aspirated and pellets resuspended in 120 μL RIPA lysis buffer supplemented with protease and phosphatase inhibitors. Cell lysates were incubated on ice for 20 minutes followed by centrifugation at >20,000×g for 5 min. Supernatants were transferred to fresh microtubes and stored at −80° C. Total protein concentration was determined using a BCA assay with a BSA standard curve and concentration of all samples was adjusted to 1 mg/mL. 25 μL 4×LDS sample buffer supplemented with 100 mM DTT was added to 75 μL sample. Samples were centrifuged (8,000×g, 1 min) and incubated at 95° C. for 5 min followed by another centrifugation step (8,000×g, 1 min). 20 μL of each sample was loaded on a 4-12% gel alongside a protein molecular weight marker. Gels were run in the presence of MOPS buffer at 80 Volts for 30 min, followed by 120 Volts for 1.5 h and proteins subsequently transferred onto nitrocellulose membranes at 20 Volts for 7 min using an iBlot2 Gel Transfer Device. Membranes were then cut horizontally into two pieces, covering 80-50 kDa and 50-25 kDa. Blocking the membranes was performed by gently shaking in 5% (w/v) skim milk in TSB-T for 1 hr at room temperature. All primary antibodies were used at a 1/1000 in 5% (w/v) BSA dissolved in TBST and incubated with membranes over night at 4° C. After three washes with 1×TBST for 5 min, HRP-coupled secondary antibodies diluted in 5% (w/v) BSA/TBST (Goat Anti-Rb IgG, dil. 1/10,000; Goat Anti-Mouse IgG, dil. 1/5000) were added for 1 hr at room temperature. After three washes with 1×TBST (5 minutes each), membranes were incubated with ECL reagent for 1 min at room temperature. Chemiluminescence signals were then detected using a LAS-4000 system with default settings and signals quantified using Image Studio Lite software (version 5.2). Membrane parts previously incubated with antibody against CK1 alpha were stripped off antibodies by incubating with stripping buffer for 30 minutes followed by three washed with TBST (5 min each), blocking with 5% (w/v) skim milk for 1 hr, and incubation with primary antibody against uGAPDH overnight at 4° C. Subsequent washes, incubation with secondary antibody and signal acquisition were performed as described above.

IKZF1 = molecular target: T2, IKZF1 (Homo sapiens, UniProt Q13422+Q96SW2); assay: Selectivity western blot assay in MM1 S cells, IKZF1; parameters: key: A represents no degradation observed at 30 μM; B represents trace degradation at 30 μM (below 20%); C represents weak degradation at 30 μM (below 50%); D represents degradation at 30 μM (>90%); E represents degradation at 3 μM (>90%); F represents degradation at 0.3 μM (>90%); settings: MM1 S cells, 0.3, 3 and 30 μM, 6 hours
T2 construct: endogenous in cells; host or cells: MM1 S (ATCC CRL-2974)
T2 sequence (Q13422 whole entry): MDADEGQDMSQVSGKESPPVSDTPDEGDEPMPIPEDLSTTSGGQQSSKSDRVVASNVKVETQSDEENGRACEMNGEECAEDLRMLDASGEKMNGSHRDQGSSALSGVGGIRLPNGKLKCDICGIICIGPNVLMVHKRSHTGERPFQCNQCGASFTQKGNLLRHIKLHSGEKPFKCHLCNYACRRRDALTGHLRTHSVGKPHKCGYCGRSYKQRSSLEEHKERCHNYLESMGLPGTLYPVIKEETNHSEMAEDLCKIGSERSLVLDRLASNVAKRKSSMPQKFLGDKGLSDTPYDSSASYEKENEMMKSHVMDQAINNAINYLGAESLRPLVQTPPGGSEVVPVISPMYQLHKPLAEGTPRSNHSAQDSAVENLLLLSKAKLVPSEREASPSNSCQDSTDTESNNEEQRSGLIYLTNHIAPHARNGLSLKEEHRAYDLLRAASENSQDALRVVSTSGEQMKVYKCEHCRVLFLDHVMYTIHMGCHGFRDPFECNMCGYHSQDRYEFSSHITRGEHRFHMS
T2 sequence (Q96SW2 whole entry): as the sequence (Q96SW2 whole entry) above
T2 sequence (Q16531 whole entry partner): as the sequence (Q16531 whole entry partner) above
Protocol: as §1

CK1alpha = molecular target: T3, CK1alpha (Homo sapiens, UniProt P48729+Q96SW2); assay: Selectivity western blot assay in MM1 S cells, CK1alpha; parameters: key: A represents no degradation observed at 30 μM; B represents trace degradation at 30 μM (below 20%); C represents weak degradation at 30 μM (below 50%); D represents degradation at 30 μM (>90%); E represents degradation at 3 μM (>90%); F represents degradation at 0.3 μM (>90%); settings: MM1 S cells, 0.3, 3 and 30 μM, 6 hours
T3 construct: endogenous in cells; host or cells: MM1 S (ATCC CRL-2974)
T3 sequence (P48729 whole entry): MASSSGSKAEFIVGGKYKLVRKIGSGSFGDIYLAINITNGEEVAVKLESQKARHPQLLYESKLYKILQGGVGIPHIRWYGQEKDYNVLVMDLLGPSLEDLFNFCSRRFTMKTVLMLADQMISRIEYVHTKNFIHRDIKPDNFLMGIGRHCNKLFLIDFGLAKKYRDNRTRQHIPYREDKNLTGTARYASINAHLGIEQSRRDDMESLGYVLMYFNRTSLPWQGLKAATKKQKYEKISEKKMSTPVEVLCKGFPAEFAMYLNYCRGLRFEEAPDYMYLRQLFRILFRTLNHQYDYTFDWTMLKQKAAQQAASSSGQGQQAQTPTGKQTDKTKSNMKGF
T3 sequence (Q96SW2 whole entry): as the sequence (Q96SW2 whole entry) above
T3 sequence (Q16531 whole entry partner): as the sequence (Q16531 whole entry partner) above
Protocol: as §1

IKZF3 = molecular target: T4, IKZF3 (Homo sapiens, UniProt Q96SW2+Q9UKT9); assay: Selectivity western blot assay in MM1 S cells, IKZF3; parameters: key: A represents no degradation observed at 30 μM; B represents trace degradation at 30 μM (below 20%); C represents weak degradation at 30 μM (below 50%); D represents degradation at 30 μM (>90%); E represents degradation at 3 μM (>90%); F represents degradation at 0.3 μM (>90%); settings: MM1 S cells, 0.3, 3 and 30 μM, 6 hours
T4 construct: endogenous in cells; host or cells: MM1 S (ATCC CRL-2974)
T4 sequence (Q9UKT9 whole entry): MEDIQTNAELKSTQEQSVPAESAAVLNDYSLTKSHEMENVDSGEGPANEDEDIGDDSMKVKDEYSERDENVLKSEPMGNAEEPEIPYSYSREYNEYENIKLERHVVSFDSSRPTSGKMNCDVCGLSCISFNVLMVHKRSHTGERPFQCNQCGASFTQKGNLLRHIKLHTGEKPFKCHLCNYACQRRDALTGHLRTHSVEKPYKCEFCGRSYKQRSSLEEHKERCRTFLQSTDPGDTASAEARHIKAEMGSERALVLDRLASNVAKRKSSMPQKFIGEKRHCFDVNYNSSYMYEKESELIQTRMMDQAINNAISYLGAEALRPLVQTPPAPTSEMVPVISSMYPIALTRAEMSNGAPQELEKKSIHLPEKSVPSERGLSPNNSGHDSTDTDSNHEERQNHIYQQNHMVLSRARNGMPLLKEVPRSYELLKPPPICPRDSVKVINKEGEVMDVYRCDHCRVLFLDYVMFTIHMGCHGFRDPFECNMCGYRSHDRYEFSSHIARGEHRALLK
T4 sequence (Q96SW2 whole entry): as the sequence (Q96SW2 whole entry) above
T4 sequence (Q16531 whole entry partner): as the sequence (Q16531 whole entry partner) above
Protocol: as §1

GSPT1 [1] = molecular target: T5, GSPT1 (Homo sapiens, UniProt P15170+Q96SW2); assay: Selectivity western blot assay in MM1 S cells, GSPT1; parameters: endogenous in cells; host or cells: MM1 S (ATCC CRL-2974); settings: MM1 S cells, 0.3, 3 and 30 μM, 6 hours
T5 sequence (P15170 whole entry): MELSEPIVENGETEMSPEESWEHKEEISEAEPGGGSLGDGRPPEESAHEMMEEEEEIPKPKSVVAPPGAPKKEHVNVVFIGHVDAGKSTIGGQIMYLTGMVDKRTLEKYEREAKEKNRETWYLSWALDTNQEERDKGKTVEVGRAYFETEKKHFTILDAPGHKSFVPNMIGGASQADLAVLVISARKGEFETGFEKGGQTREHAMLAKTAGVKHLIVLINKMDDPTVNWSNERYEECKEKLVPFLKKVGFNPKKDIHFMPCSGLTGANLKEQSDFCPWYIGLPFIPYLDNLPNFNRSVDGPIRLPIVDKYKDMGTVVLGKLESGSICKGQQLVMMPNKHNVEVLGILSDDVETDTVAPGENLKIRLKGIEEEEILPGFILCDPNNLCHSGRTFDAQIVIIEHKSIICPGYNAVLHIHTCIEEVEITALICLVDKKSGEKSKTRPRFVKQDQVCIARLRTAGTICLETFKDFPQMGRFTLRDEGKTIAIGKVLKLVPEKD
T5 sequence (Q96SW2 whole entry): as the sequence (Q96SW2 whole entry) above
T5 sequence (Q16531 whole entry partner): as the sequence (Q16531 whole entry partner) above
Protocol: as §1

GSPT1 [2] = molecular target: T5, GSPT1; assay: GSPT1 degradation immunofluorescence assay in CAL-51 cells; parameters: endogenous in cells; host or cells: CAL-51 (DSMZ ACC302); settings: 6 hours, Table 5A, read-out: Activity for GSPT1 degradation, Code (DC50)
Protocol: CAL-51 cells were purchased from DSMZ (cat. Number ACC302), sub-cultured in 90% Dulbecco's MEM (4.5 g/L glucose, Gibco 11965)+10% heat inactivated FBS (BioConcept, 2-01F1361) and incubated at 37° C., 5% CO2. For the assay, imaging microtiterplate Cell Carrier 96 Ultra (Perkin Elmer 6055302) were pre-coated with Fibronectin (Sigma F085, 30 μl at 0.2 μg/ml) in PBS (100 μl, Gibco 14190) for 45 min at room temperature, rinsed with PBS and CAL-51 cells (30K cells/well) were plated and let to adhere overnight. Cells were treated with compounds typically using a serial dilution ranging from 30 μM to 0.1 nM for 6 hours. Compounds were stored at 10 mM DMSO stocks. Vehicle (DMSO), positive (CC-885, 10 μM) and rescue controls (positive control plus 0.2 μM bortezomib) were also included at this stage. Cells were subsequently rinsed with PBS and fixed in 10% Formalin solution (50 μl, Sigma HT5011)) for 20 mins at room temperature. Following three consecutive PBS washes (100 μl), cells were permeabilized in 0.1% Triton X-100 in PBS (Sigma 93443, 50 μl) for 15 mins at room temperature. Following three further PBS washes, 50 μl blocking buffer (1% BSA, Sigma A4503, in PBS) was added for 45 min for signal-to-noise reduction. Primary antibody (human GSPT1, Sigma HPA052488) was diluted in blocking buffer (dil. 1/300, 35 μl/well) and incubated with the cells overnight at 4° C. After three PBS washes, Alexa-fluor 488 coupled secondary antibodies (Invitrogen, A32731, dil. 1/1000), Alexa-fluor 647-Phalloidin (Invitrogen, A22287, dil. 1/200) and DAPI (Thermo, #62248, dil. 1/1000) were diluted in blocking buffer and incubated with the samples for 2 hours at room temperature. After three final PBS washes, samples were conserved in 100 μl PBS in the dark, until measurement. Image acquisition was performed on the Operetta High-Content Imager (Perkin-Elmer). Fluorescence intensity of Alexa-Fluor 488 (GSPT1), Alexa-Fluor 647 (Actin) and DAPI (Nucleus) were measured. For the determination of GSPT1 DC50 values, a custom algorithm implemented in the PerkinElmer image analysis software Harmony-Acapella® was developed. After user-defined setting of adjustment parameters, the analysis was run identically without human intervention for all image fields. DAPI staining of the nuclei was used to determine the location of cells using standard nuclei detection modules. Segmentation artifacts were removed by threshold-based filters for area, roundness and intensity. The outline of the cells was determined analogously from the sum of the normalized, smoothed DAPI and Actin channel, starting from each nucleus. The Alexa-Fluor 488 (GSPT1) signal intensity in each cell was finally measured, in order to obtain a Mean intensity per cell. GSPT1 degradation (DC50) was calculated after normalization to controls and data import in CDD vault Database, using non-linear regression.

SMILES	IKZF1 degradation (IKZF1)	IKZF3 degradation (IKZF3)	DC50 (GSPT1 [2])	ZFP91 degradation (ZFP91)	CK1alpha degradation (CK1alpha)	GSPT1 degradation (GSPT1 [1])
Cc1ccc(NC(=O)NCc2ccc3c(c2)C(=O)N(C2CCC(=O)NC2=O)C3)c(Cl)c1Cl (stereo not drawn) [Compound 87]	A	A		A	A	E (E represents degradation at 3 μM (>90%))
COc1cc(C)c(Cl)cc1NC(=O)OCc1ccc2c(c1)C(=O)N(C1CCC(=O)NC1=O)C2 (stereo not drawn) [Compound 201]	A	B (B represents trace degradation at 30 μM (below 20%))		A	B (B represents trace degradation at 30 μM (below 20%))	F (F represents degradation at 0.3 μM (>90%))
Cc1c(Cl)cc(NC(=O)NCc2ccc3c(c2)C(=O)N(C2CCC(=O)NC2=O)C3)cc1CN(C)C (stereo not drawn) [Compound 75]	A	A		A	A	E (E represents degradation at 3 μM (>90%))
O=C1CCC(N2Cc3ccc(CNC(=O)Nc4cccc(CN5CCOCC5)c4)cc3C2=O)C(=O)N1 (stereo not drawn) [Compound 105]	B (B represents trace degradation at 30 μM (below 20%))	A		B (B represents trace degradation at 30 μM (below 20%))	A	E (E represents degradation at 3 μM (>90%))
Cc1cc(C)c(NC(=O)NCc2ccc3c(c2)C(=O)N(C2CCC(=O)NC2=O)C3)cc1Cl (stereo not drawn) [Compound 85]	A	A		A	B (B represents trace degradation at 30 μM (below 20%))	E (E represents degradation at 3 μM (>90%))
Cc1c(Cl)cc(NC(=O)NCc2ccc3c(c2)C(=O)N(C2CCC(=O)NC2=O)C3)cc1CN1CCOCC1 (stereo not drawn) [Compound 82]	A	A		A	A	F (F represents degradation at 0.3 μM (>90%))

Now from value to compound, other results behind:

IKZF1 degradation (IKZF1)	IKZF3 degradation (IKZF3)	DC50 (GSPT1 [2])	SMILES	ZFP91 degradation (ZFP91)	CK1alpha degradation (CK1alpha)	GSPT1 degradation (GSPT1 [1])
A	A		Cc1c(Cl)cc(NC(=O)NCc2ccc3c(c2)C(=O)N(C2CCC(=O)NC2=O)C3)cc1CC1COCOC1 (stereo not drawn) [Compound 132]	C (C represents weak degradation at 30 μM (below 50%))	C (C represents weak degradation at 30 μM (below 50%))	F (F represents degradation at 0.3 μM (>90%))
A	A		CCc1ncc(NC(=O)OCc2ccc3c(c2)C(=O)N(C2CCC(=O)NC2=O)C3)cc1C (stereo not drawn) [Compound 249]	B (B represents trace degradation at 30 μM (below 20%))	B (B represents trace degradation at 30 μM (below 20%))	F (F represents degradation at 0.3 μM (>90%))
A	A	≤ 30 nM	O=C1CCC(N2Cc3ccc(COC(=O)Nc4cccc(OC(F)(F)F)c4)cc3C2=O)C(=O)N1 (stereo not drawn) [Compound 203]	B (B represents trace degradation at 30 μM (below 20%))	B (B represents trace degradation at 30 μM (below 20%))	F (F represents degradation at 0.3 μM (>90%))
A	A		CC(C)(C)c1ccc(NC(=O)OCc2ccc3c(c2)C(=O)N(C2CCC(=O)NC2=O)C3)cc1 (stereo not drawn) [Compound 247]	B (B represents trace degradation at 30 μM (below 20%))	B (B represents trace degradation at 30 μM (below 20%))	F (F represents degradation at 0.3 μM (>90%))
